The source of these data is patent US20020182635A1, “Methods of screening for LTRPC2 modulators” (priority 2000, published 2002).

Where two headings read alike, the source gives them in different places.

Test [1] concerns the target T1, NUDT9 (Homo sapiens, UniProt Q9BW91).
T1 construct: made in house; host or cells: E. coli BL21 (DE3), pET-24d
T1 sequence (Q9BW91 47-350): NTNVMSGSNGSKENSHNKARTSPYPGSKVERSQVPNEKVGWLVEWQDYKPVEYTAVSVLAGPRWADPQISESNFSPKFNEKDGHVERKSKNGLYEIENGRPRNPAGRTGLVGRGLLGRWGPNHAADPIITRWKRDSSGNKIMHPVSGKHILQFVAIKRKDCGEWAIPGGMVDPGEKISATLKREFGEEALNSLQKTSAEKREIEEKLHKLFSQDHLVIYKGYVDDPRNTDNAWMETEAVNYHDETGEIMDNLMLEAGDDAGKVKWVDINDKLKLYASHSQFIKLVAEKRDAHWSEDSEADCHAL
As to the kind of experiment: Nudix-type hydrolase activity towards a panel of substrates, NUDT9. The note with it: purified bacterially expressed NUDT9. It counts as biochemical. The method, then:
(§1) FIG. 2(B) is a characterization of the enzymatic activity of NUDT9 and NUDT9-H. Purified preparations of NUDT9 and NUDT9-H were screened for Nudix-type activity towards a panel of substrates as described in the methods section. Km and Vmax were calculated by non-linear regression analysis of Lineweaver-Burke plots.
(§2) BL21 (DE3) cells containing the respective expression plasmids were grown at 37° C. in LB broth on a shaker to an A600 of about 0.6 and induced by the addition of isopropyl-b-D-thiogalactopyranoside to a concentration of 1 mM. The cells were grown for an additional 4 h, harvested, washed by suspension in isotonic saline, centrifuged in pre-weighed centrifuge tubes, and the packed cells were stored at −80 ° C. […] In the case of NUDT9, enzyme was extracted in the freeze-thaw fraction and ammonium sulfate was added to 35% final concentration. The precipitate was discarded after centrifugation and ammonium sulfate was added to the supernatant to a final concentration of 50%. The precipitate was collected by centrifugation, dissolved, then chromatographed on a gel filtration column (Sephadex G-100). The active fractions containing the majority of the enzyme were pooled, concentrated by centrifugation in an Amicon Centriprep30, dialyzed, and chromatographed on DEAE-sepharose. The purified enzyme was concentrated from the pooled active fractions again using an Amicon Centriprep30. For the NUDT9 homology region of LTRPC2, the protein was extracted in the freeze-thaw fraction and ammonium sulfate was added to 35% final concentration and centrifuged. The precipitate was dissolved, dialyzed, and chromatographed on DEAE-sepharose. The purified enzyme was concentrated from the pooled active fractions by precipitation with 70% ammonium sulfate.
(§3) Enzyme Assay: Enzyme velocities were quantified by measuring the conversion of a phosphatase-insensitive substrate, ADPR, to the phosphatase-sensitive products, AMP and ribose-5-phosphate. The liberated inorganic orthophosphate was measured by the procedure of Ames and DubinENRfu^27. The standard incubation mixture ([…]) contained 50 mM Tris-Cl, pH 9.0, 16 mM MgCl2, 2 mM ADPR, 0.2-1 milliunitsof enzyme and 4 units of alkaline intestinal phosphatase. After 30 min at 37° C., the reaction was terminated by the addition of EDTA and inorganic orthophosphate was measured. A unit of enzyme hydrolyzes […] of substrate per min under these conditions. Note that 2 moles of phosphate are liberated per mole of ADPR hydrolyzed. Product determination: The standard assay mixture (minus alkaline intestinal phosphatase) was incubated for 30 min at 37° C. and terminated by the addition of […] of a mixture of four parts of Norit (20% packed volume) and one part of 7% HClO4 to remove adenine-containing nucleotides. After centrifugation, […] was adjusted to an alkaline pH and incubated for an additional 30 min at 37° C. with alkaline intestinal phosphatase to hydrolyze the ribose-5-phosphate formed.

Test [2] addresses T2, LTRPC2 NUDT9-H (Homo sapiens, UniProt O94759).
T2 construct: an artificial start codon, amino acids 1197-1503, a stop codon; artificial initiating Met (artificial start codon) (N); made in house; host or cells: E. coli BL21 (DE3), pET-24d
As to the kind of experiment: Nudix-type hydrolase activity towards a panel of substrates, NUDT9-H region of LTRPC2. Format: biochemical. As to conditions: purified bacterially expressed NUDT9-H of LTRPC2. How it is done: as §1, §2, §3

Test [3] has as its target T3, LTRPC2 (Homo sapiens, UniProt O94759).
T3 construct: beginning at amino acid 3 and extending to amino acid 1503; FLAG tag within the printed N-terminal leader […]; expressed in transfected cells
The test is described as follows: ADPR-dependent gating of LTRPC2, whole-cell patch-clamp in tetracycline-induced HEK-293 cells expressing FLAG-LTRPC2. Format: cell-based. The method, then:
10^6 cells were analyzed for expression of a FLAG-reactive protein by anti-FLAG immunoprecipitation/anti-FLAG immunoblotting. […] The open symbols represent superimposed analyses of responses obtained from (i) wild-type HEK-293 cells (WT) perfused with standard internal solution in the absence of ADPR (n=3±sem); (ii) uninduced cells perfused with standard internal solution in the absence of ADPR (n=5±sem); (iii) uninduced HEK-293 cells perfused with standard solution containing 1 mM ADPR (n=3±sem); (iv) tet-induced HEK-293 cells perfused with standard internal solution without ADPR present (n=4±sem). […] The filled symbols indicate the time points at which individual high-resolution data traces were extracted for presentation as I/V curves in FIG. 3(F). […] Ramp currents were recorded in response of a standard voltage ramp stimulus (−100 mV to +100 mV in 50 ms).
FIG. 4 depicts the characterization of ADPR-dependent currents in LTRPC2-expressing in HEK-293 cells. […] HEK-293 cells expressing FLAG-LTRPC2 were perfused with defined ADPR concentrations ranging from […] to 1 mM, and currents were measured at −80 mV as in FIG. 3(D). The maximum current amplitude of individual cells was derived by analyzing the time course of current development (see e.g., FIGS. 3(C) and 3(D)) and fitting a Boltzmann curve to the rising phase of the developing cationic conductance. Peak current amplitudes were averaged and plotted versus ADPR concentration (n=5 to 12±sem). […] FIG. 4(B) depicts the kinetics of ADPR-dependent gating of LTRPC2. The temporal development of ADPR-gated currents was assessed as described in FIG. 4(A) by fitting a Boltzmann curve to the rising phase of the developing cationic conductance. The mid-point values of this analysis correspond to the time of half-maximal current activation, and are plotted as a function of ADPR concentration. […] HEK-293 cells expressing FLAG-LTRPC2 were perfused with 100 μM ADPR. 80 seconds into the experiment, and indicated by the bar, isotonic CaCl2 solution (120 mM CaCl2, 300 mOsm) was applied externally for 20 seconds.
Wild type and tetracycline-inducible HEK-293 FLAG-LTRPC2 expressing cells were cultured at 37° C./5% CO2 in DMEM supplemented with 10% FBS and 2 mM glutamine. The medium was supplemented with blasticidin (5 μg/ml; Invitrogen) and zeocin (0.4 mg/ml; Invitrogen). Cells were resuspended in media containing 1 μg/ml tetracycline (Invitrogen) 24 hours before experiments.
For patch-clamp experiments, cells grown on coverslips were transferred to the recording chamber and kept in a standard modified Ringer's solution of the following composition (in mM): NaCl 145, KCl 2.8, CaCl2 1, MgCl2 2, glucose 10, Hepes-NaOH 10, pH 7.2. Intracellular pipette-filling solutions contained (in mM): Cs-glutamate 145, NaCl 8, MgCl2 1, Cs-BAPTA 10, pH 7.2 adjusted with CsOH.
(In general: Patch clamp records ionic current or voltage across a cell membrane.)

The subject of test [4] is ADPR-dependent current (IADPR) in human U937 monocytes. As to the kind of experiment: Endogenous ADPR-dependent current (IADPR), whole-cell patch-clamp in U937 monocytes. It counts as cell-based. As to conditions: U937 cells; for EC50: read-out: apparent EC50 for IADPR. The method, then:
FIG. 5 depicts the characterization of endogenous ADPR-dependent current(IADPR) in human U937 monocytes. […] In the right lane, the blot identifies LTRPC2 mRNA in native U937 cells. […] FIG. 5(B) depicts the temporal development of inward currents in U937 cells at −80 mV activated by different intracellular concentrations of ADPR in the presence of 10 mM BAPTA (n=4-11 each). FIG. 5(C) depicts the temporal development of inward currents in U937 cells at −80 mV activated by different intracellular concentrations of ADPR while [Ca^2+]i was buffered to 100 nM (n=5-7 each). FIG. 5(D) depicts the temporal development of inward currents in U937 cells at −80 mV activated by different intracellular concentrations of ADPR in the absence of exogenous buffers (n=5-9 each). […] Representative current record in response to a voltage ramp ranging from −100 to +100 mV over 50 ms. The record was obtained 100 s after whole-cell establishment from a cell perfused with 100 μM ADPR under unbuffered conditions.
For patch-clamp experiments, cells grown on coverslips were transferred to the recording chamber and kept in a standard modified Ringer's solution of the following composition (in mM): NaCl 145, KCl 2.8, CaCl2 1, MgCl2 2, glucose 10, Hepes-NaOH 10, pH 7.2. Intracellular pipette-filling solutions contained (in mM): Cs-glutamate 145, NaCl 8, MgCl2 1, Cs-BAPTA 10, pH 7.2 adjusted with CsOH. In some experiments, BAPTA was omitted from the pipette solution and 100 μM fura-2 was added for the purpose of fluorimetric monitoring of intracellular Ca^2+ concentration. […] The agonists were dissolved in the standard intracellular solution. Patch-clamp experiments were performed in the tight-seal whole-cell configuration at 21-25° C. High-resolution current recordings were acquired by a computer-based patch-clamp amplifier system (EPC-9, HEKA, Lambrecht, Germany). Patch pipettes had resistances between 2-4 MW after filling with the standard intracellular solution. Immediately following establishment of the 5 whole-cell configuration, voltage ramps of 50 ms duration spanning the voltage range of −100 to +100 mV were delivered from a holding potential of 0 mV at a rate of 0.5 Hz over a period of 200 to 400 seconds. All voltages were corrected for a liquid junction potential of 10 mV between external and internal solutions. Currents were filtered at 2.9 kHz and digitized at 100 μs intervals. Capacitive currents and series resistance were determined and corrected before each voltage ramp using the automatic capacitance compensation of the EPC-9. For analysis, the very first ramps prior to current activation were digitally filtered at 2 kHz, pooled and used for leak-subtraction of all subsequent current records. […]

T3 sequence (O94759 3-1503): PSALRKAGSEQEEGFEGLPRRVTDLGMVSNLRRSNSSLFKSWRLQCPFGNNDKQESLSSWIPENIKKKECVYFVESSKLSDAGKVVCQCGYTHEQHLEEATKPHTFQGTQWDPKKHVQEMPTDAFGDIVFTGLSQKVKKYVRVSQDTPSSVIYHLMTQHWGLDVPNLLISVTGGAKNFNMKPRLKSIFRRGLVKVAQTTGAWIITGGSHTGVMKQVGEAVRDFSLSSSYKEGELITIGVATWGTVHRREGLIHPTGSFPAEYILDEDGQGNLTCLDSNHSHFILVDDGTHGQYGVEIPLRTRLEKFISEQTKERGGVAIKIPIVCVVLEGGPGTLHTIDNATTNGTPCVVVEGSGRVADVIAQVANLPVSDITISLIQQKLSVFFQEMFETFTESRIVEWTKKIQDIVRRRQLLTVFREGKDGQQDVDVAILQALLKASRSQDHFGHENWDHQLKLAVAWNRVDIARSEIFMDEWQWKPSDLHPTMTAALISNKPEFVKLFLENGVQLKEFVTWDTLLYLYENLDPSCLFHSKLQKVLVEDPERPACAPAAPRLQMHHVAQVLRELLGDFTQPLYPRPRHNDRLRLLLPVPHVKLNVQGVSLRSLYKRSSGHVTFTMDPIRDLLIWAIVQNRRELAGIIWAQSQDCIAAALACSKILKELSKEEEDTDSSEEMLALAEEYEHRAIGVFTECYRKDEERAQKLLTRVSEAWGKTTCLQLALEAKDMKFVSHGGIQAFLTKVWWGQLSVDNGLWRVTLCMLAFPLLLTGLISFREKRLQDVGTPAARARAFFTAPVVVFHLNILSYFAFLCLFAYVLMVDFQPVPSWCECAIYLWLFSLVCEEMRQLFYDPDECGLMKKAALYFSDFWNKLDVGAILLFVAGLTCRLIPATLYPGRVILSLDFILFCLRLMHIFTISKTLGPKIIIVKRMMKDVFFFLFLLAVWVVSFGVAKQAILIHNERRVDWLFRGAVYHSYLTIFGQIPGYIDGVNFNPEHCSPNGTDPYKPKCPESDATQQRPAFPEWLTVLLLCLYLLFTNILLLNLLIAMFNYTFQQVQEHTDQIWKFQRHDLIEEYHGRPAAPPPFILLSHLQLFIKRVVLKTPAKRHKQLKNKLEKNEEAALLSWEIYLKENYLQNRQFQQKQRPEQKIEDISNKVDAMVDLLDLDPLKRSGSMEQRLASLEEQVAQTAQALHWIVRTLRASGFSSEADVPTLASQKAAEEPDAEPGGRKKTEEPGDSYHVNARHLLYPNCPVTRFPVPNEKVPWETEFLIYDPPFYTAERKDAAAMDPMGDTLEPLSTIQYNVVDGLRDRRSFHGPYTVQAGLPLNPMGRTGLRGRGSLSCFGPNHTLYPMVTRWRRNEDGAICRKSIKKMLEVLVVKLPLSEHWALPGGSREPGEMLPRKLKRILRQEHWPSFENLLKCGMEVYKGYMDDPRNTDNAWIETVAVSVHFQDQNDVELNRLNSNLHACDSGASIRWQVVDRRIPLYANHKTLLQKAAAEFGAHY
T2 sequence (O94759 1197-1503): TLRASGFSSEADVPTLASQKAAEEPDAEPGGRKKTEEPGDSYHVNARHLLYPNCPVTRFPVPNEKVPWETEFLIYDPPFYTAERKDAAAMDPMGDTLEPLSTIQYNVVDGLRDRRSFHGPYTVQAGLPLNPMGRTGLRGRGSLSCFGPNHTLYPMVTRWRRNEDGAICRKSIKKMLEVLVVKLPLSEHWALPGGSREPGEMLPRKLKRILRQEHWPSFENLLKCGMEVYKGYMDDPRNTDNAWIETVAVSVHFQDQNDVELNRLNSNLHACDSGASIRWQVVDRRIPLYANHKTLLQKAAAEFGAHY

As for `Nc1ncnc2c1ncn2[C@@H]1O[C@H](COP(=O)(O)OP(=O)(O)O[C@H]2O[C@H](CO)[C@@H](O)[C@H](O)[C@H]2O)[C@@H](O)[C@H]1O` [ADP-lucose], in test [1], the “hydrolysis as substrate by NUDT9” value is listed as “not hydrolyzed”. The “hydrolysis as substrate by NUDT9-H” value in test [2] is recorded as “not hydrolyzed”.
In the case of `Nc1ncnc2c1ncn2[C@@H]1O[C@H](COP(=O)(O)OP(=O)(O)OC[C@H]2OC(O)[C@H](O)[C@@H]2O)[C@@H](O)[C@H]1O` (stereo partly drawn) [ADPR, Adenosine 5-diphospho (ADP)-ribose], the “Hill coefficient of dose-response curve” value in test [3] (HEK-293 cells expressing FLAG-LTRPC2, currents at −80 mV) came out at 9. Also, the EC50 – broadly, the midpoint of the concentration-response curve – came out at 90 µM in test [3] (HEK-293 cells expressing FLAG-LTRPC2, intracellular perfusion, peak currents at −80 mV, read-out: apparent EC50 of ADPR-dependent gating of LTRPC2); 130 µM in test [4] ([Ca2+]i buffered to 100 nM); 40 µM in test [4] (unbuffered (exogenous buffers omitted)). In test [3] (cells perfused with 60 μM ADPR or higher (n=38)), the “cells that generated currents above control levels” value worked out at 91%. Also, in test [3] (intracellular ADPR), the “intracellular concentration at which gating of the LTRPC2 channel begins” value is 60 to 100 µM. In test [3] (intracellular ADPR), the “intracellular concentration at which saturation occurs” value was about 300 µM. Also, in test [3] (tet-induced HEK-293 cells expressing FLAG-LTRPC2 perfused with 100 μM ADPR), the “membrane currents at −80 mV” value was “large inward currents”. Besides, the Hill coefficient in test [4] ([Ca2+]i buffered to 100 nM) and in test [4] (unbuffered) was 8 throughout.
In the case of `Nc1nc2c(ncn2[C@@H]2O[C@H](COP(=O)(O)OP(=O)(O)O[C@H]3O[C@H](CO)[C@@H](O)[C@H](O)[C@@H]3O)[C@@H](O)[C@H]2O)c(=O)[nH]1` [GDP-mannose], the “hydrolysis as substrate by NUDT9” value in test [1] is “not hydrolyzed”. Further, the “hydrolysis as substrate by NUDT9-H” value in test [2] is listed as “not hydrolyzed”.
As to `NC(=O)C1=CN([C@@H]2O[C@H](COP(=O)(O)OP(=O)(O)OC[C@H]3O[C@@H](n4cnc5c(N)ncnc54)[C@H](O)[C@@H]3O)[C@@H](O)[C@H]2O)C=CC1` [NADH], the “hydrolysis as substrate by NUDT9” value in test [1] is “not hydrolyzed”. The “hydrolysis as substrate by NUDT9-H” value in test [2] was “not hydrolyzed”.
`NC(=O)c1ccc[n+]([C@@H]2O[C@H](COP(=O)([O-])OP(=O)(O)OC[C@H]3O[C@@H](n4cnc5c(N)ncnc54)[C@H](O)[C@@H]3O)[C@@H](O)[C@H]2O)c1` [NAD^+, nicotinamide adenine dinucleotide]: the “hydrolysis as substrate by NUDT9” value in test [1] is “not hydrolyzed”. Moreover, in test [2], the “hydrolysis as substrate by NUDT9-H” value is “not hydrolyzed”.
For `Nc1ccn([C@H]2C[C@H](O)[C@@H](COP(=O)(O)OP(=O)(O)OP(=O)(O)O)O2)c(=O)n1` [deoxy-CTP], the “hydrolysis as substrate by NUDT9” value in test [1] is on record as “not hydrolyzed”. For the same compound, the “hydrolysis as substrate by NUDT9-H” value in test [2] is given as “not hydrolyzed”.
Regarding `Nc1nc2c(ncn2[C@H]2C[C@H](O)[C@@H](COP(=O)(O)OP(=O)(O)OP(=O)(O)O)O2)c(=O)[nH]1` [deoxy-GTP], the “hydrolysis as substrate by NUDT9” value in test [1] was “not hydrolyzed”. Moreover, the “hydrolysis as substrate by NUDT9-H” value in test [2] is “not hydrolyzed”.
For `Cc1cn([C@H]2C[C@H](O)[C@@H](COP(=O)(O)OP(=O)(O)OP(=O)(O)O)O2)c(=O)[nH]c1=O` [deoxy-TTP], the “hydrolysis as substrate by NUDT9” value in test [1] is “not hydrolyzed”. For the same compound, in test [2], the “hydrolysis as substrate by NUDT9-H” value is “not hydrolyzed”.
